Results as given in patent US10869846B2, “N-acetylcysteine amide (NAC amide) in the treatment of diseases and conditions associated with oxidative stress” (SENTIENT LIFESCIENCES, INC., priority 2005, dated 2020).

Test system: Sprague-Dawley rats
Assay: Survival after whole body single-dose X-ray irradiation (9 Gy)
Format: in vivo, rat
Settings: for survival rate versus XRT alone: pre-treated before XRT
Description: This Example describes a study observing the survival of rats receiving whole body, single-dose irradiation by X-rays (XRT) in the presence or absence of NAC or NAC amide (TOVA). In this experiment, thirty-nine female Sprague-Dawley rats ranging from about 150-200 g were subjected to total body, single-dose X-ray irradiation (9 Gy, 16 Mev). The same groups were designated to receive either NAC or TOVA. For the pre-treatment groups (n=6 in each group), the first treatment of NAC or TOVA was administered 30 minutes to 1 hour before irradiation. For the post-pretreatment groups (n=6 in each group), the first treatment of NAC or TOVA was administered 30 minutes to 1 hour after the irradiation. For groups receiving NAC or TOVA, the same amount (500 mg/kg NAC or TOVA daily) was administered for 4 or 5 consecutive days.
Group 1 was a control group (n=3), where rats received the same amount of saline solution daily for 5 consecutive days without XRT. Group 2 rats received NAC only (n=3) at an amount of 500 mg/kg body weight NAC daily for 5 consecutive days without XRT. Group 3 rats received TOVA only (n=3) at an amount of 500 mg/kg body weight TOVA daily for 5 consecutive days without XRT. Group 4 rats received radiation (XRT) only (n=6) and received the same amount of saline solution daily for 5 consecutive days after single dose total-body XRT irradiation.
Group 5 rats received one treatment of NAC at 500 mg/kg body weight before XRT (XRT+NAC pre-treated), which was then followed by 500 mg/kg body weight NAC daily for 4 consecutive days after XRT. Group 6 rats received XRT, followed by daily doses of NAC at 500 mg/kg body weight for 5 consecutive days after XRT (XRT+NAC post-treated). Group 7 rats […] at 500 mg/kg body weight before XRT (XRT+TOVA pre-treated), which was then followed by 500 mg/kg body weight TOVA daily for 4 consecutive days after XRT. Group 8 rats received XRT, followed by daily doses of TOVA at 500 mg/kg body weight for 5 consecutive days after XRT (XRT+TOVA post-treated). All rats were then given a normal diet post-treatment.
The rats were observed twice a day, and the survival status of rats in each group will be recorded. The mean survival days were calculated for each group and compared to the survival differences of the three groups of rats at the end of the experiment. The radioprotective effects of NAC and TOVA treatment on the survival of those irradiated rats were then evaluated, as shown in the following tables.

[1] = Table 15, XRT 9 Gy, post-treated
[2] = Table 15, XRT 9 Gy, pre-treated
[3] = Table 15, compound only, no XRT
[4] = Table 16, XRT 9 Gy, post-treated
[5] = Table 16, XRT 9 Gy, pre-treated
[6] = Table 16, compound only, no XRT
[7] = XRT 9 Gy, post-treated, 500 mg/kg daily, n = 6, 2nd time
[8] = XRT 9 Gy, pre-treated, 500 mg/kg daily, n = 6, 1st time
[9] = XRT 9 Gy, pre-treated, 500 mg/kg daily, n = 6, 2nd time
[10] = compound only, no XRT, 500 mg/kg daily 5 days, 2nd time

Row | Molecule | percentage survival rate [1] [%] | percentage survival rate [2] [%] | percentage survival rate [3] [%] | percentage survival rate [4] [%] | percentage survival rate [5] [%] | percentage survival rate [6] [%] | # of animals dead [7] | # of animals survived [7] | # of animals dead [8] | # of animals survived [8] | # of animals dead [9] | # of animals survived [9] | # of animals dead [10] | # of animals survived [10] | survival rate versus XRT alone
1 | N-acetylcysteine amide [NAC amide] | 66.7 | 100 | 100 | 66.7 | 100 | 100 | 2 | 4 | 0 | 6 | 0 | 6 | 0 | 3 | higher survival rate
2 | CC(=O)N[C@@H](CS)C(=O)O [NAC, N-acetylcysteine] | 33.3 | 83.3 | 100 | 33.3 | 83.3 | 100 | 4 | 2 | 1 | 5 | 1 | 5 | 0 | 2 | higher survival rate
